In ChEMBL document CHEMBL1146525, “New triterpenoid alkaloid cholinesterase inhibitors from Buxus hyrcana” (J Nat Prod, 2003) one finds IC50 and Ratio IC50 data, which are given here for 3 compounds.

The target of one assay is Acetylcholinesterase (Electrophorus electricus, UniProt O42275). Briefly: Inhibition of electric eel AChE by modified Ellman method. On the technique in general: In Ellman's method for cholinesterases, released thiocholine reacts with DTNB.
In a further assay the target is Cholinesterase (Homo sapiens, UniProt P06276). As to the kind of experiment: Inhibition of BChE.
Sequence of Cholinesterase (P06276 whole entry): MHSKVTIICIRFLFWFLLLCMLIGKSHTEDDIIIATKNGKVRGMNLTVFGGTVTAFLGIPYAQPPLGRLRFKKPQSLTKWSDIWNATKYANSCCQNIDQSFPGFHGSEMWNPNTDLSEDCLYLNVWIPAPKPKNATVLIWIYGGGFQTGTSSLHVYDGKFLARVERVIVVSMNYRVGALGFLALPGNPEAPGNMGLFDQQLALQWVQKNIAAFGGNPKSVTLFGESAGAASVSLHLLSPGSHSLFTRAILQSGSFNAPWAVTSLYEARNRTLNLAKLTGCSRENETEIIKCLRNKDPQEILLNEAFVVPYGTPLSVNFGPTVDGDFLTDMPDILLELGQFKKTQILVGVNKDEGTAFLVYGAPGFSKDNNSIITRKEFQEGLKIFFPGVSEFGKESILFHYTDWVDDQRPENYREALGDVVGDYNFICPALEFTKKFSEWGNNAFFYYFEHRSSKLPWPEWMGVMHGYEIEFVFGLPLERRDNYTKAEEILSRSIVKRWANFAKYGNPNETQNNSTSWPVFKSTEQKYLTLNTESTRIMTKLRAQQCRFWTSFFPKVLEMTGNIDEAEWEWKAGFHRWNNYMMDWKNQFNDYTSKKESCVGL
Assay [1] can be described thus: Selectivity ratio of IC50 for electric eel AChE to IC50 for BChE.

Sequence of Acetylcholinesterase (O42275 whole entry): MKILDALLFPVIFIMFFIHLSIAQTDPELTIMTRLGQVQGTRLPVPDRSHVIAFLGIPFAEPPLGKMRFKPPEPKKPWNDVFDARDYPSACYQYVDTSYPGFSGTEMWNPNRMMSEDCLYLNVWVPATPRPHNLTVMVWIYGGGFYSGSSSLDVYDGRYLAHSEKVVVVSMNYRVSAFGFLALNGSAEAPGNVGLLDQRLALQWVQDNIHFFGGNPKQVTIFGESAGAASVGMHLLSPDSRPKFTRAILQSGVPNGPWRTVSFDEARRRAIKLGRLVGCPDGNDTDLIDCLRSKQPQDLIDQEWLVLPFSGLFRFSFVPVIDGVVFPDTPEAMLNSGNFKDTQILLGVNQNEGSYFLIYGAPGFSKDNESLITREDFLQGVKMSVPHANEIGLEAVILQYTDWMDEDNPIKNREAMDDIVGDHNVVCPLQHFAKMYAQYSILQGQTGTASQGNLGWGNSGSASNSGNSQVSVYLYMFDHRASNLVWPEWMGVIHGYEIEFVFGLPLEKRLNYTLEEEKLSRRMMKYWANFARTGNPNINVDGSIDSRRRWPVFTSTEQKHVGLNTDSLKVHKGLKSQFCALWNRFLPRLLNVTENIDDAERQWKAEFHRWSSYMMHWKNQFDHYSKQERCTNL

In the case of `C/C=C(\C)C(=O)N[C@H]1CC[C@]2(O)CC3=CC[C@]4(C)[C@@H]([C@H](C)N(C)C)CC[C@@]4(C)[C@@H]3CC[C@H]2C1(C)C` [N-TIGLOYLBUXAHYRCANINE], the IC50 (as a rule, the midpoint of a concentration-inhibition curve) at Acetylcholinesterase was found to be 444 µM; on Cholinesterase, 31.2 µM. Also, in assay [1], the Ratio IC50 came out at 14.2.
On the same counts, the results for `CC(C)C(=O)N[C@H]1CC[C@]2(O)CC3=CC[C@]4(C)[C@@H]([C@H](C)N(C)C)CC[C@@]4(C)[C@@H]3CC[C@H]2C1(C)C` [N-ISOBUTYROYLBUXAHYRCANINE] are over 1000 µM, 53.7 µM and 18.6.
Consider `C[C@@H]([C@H]1CC[C@@]2(C)[C@@H]3CC[C@H]4C(C)(C)[C@@H](NC(=O)c5ccccc5)CC[C@]4(O)CC3=CC[C@]12C)N(C)C` [N-BENZOYLBUXAHYRCANINE], for which the 50% inhibitory concentration (IC50) is over 1000 µM against Acetylcholinesterase and 311 µM against Cholinesterase. Further, the Ratio IC50 in assay [1] was 3.2.
